#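 Cultured in 96-well plates, cells were exposed to test compound for 48 hours across five concentrations. At the GI50, growth is halved.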 Active and inactive are the calls of the source. Cut-off read from the data, not from the text of the source: active = GI50 up to about 1.1 µM and inactive = higher.
# Columns and labels:
# Assay in all cases: NCI tumour cell line growth inhibition, 48 h
# SNB-78 = system: SNB-78
# DLD-1 = system: DLD-1
# M19-MEL = system: M19-MEL
# LXFL 529 = system: LXFL 529
# XF498 = system: XF498
# DMS-273 = system: DMS-273
# HOP-18 = system: HOP-18
# KM-20L2 = system: KM-20L2
# DMS-114 = system: DMS-114
Structure (SMILES),GI50 (SNB-78),GI50 (DLD-1),GI50 (M19-MEL),GI50 (LXFL 529),GI50 (XF498),GI50 (DMS-273),GI50 (HOP-18),GI50 (KM-20L2),GI50 (DMS-114)
COC(=O)C(C(=O)C(=O)Nc1ccc(C)cc1C)c1nc2ccc([N+](=O)[O-])cc2nc1O (stereo not drawn),> 100 µM (inactive),> 100 µM (inactive),> 100 µM (inactive),56.8 µM (inactive),> 100 µM (inactive),97.7 µM (inactive),> 100 µM (inactive),> 100 µM (inactive),33.4 µM (inactive)
CC(=O)OCC1OC(n2c(=O)[nH]c(=O)c3nn[nH]c32)C(OC(C)=O)C(OC(C)=O)C1OC(C)=O (stereo not drawn),,> 100 µM (inactive),> 100 µM (inactive),> 100 µM (inactive),> 100 µM (inactive),> 100 µM (inactive),76.7 µM (inactive),> 100 µM (inactive),> 100 µM (inactive)
O=C(O)C12C3CCC(C3)C1(C(=O)O)C1CCC2C1 (stereo not drawn),> 100 µM (inactive),24.7 µM (inactive),92.5 µM (inactive),> 100 µM (inactive),> 100 µM (inactive),> 100 µM (inactive),> 100 µM (inactive),> 100 µM (inactive),33.9 µM (inactive)
CCOP(=O)(OCC)/C(C#N)=C\c1cccc2ccccc12,48.2 µM (inactive),,> 100 µM (inactive),,,,,> 100 µM (inactive),
CNC(=O)NCNC(=O)NC,> 100 µM (inactive),> 100 µM (inactive),> 100 µM (inactive),> 100 µM (inactive),,> 100 µM (inactive),> 100 µM (inactive),> 100 µM (inactive),> 100 µM (inactive)
COc1cc2ccnc3c2c(c1OC)CC1CC(O)C(OC)CC31 (stereo not drawn),> 100 µM (inactive),95.3 µM (inactive),96.2 µM (inactive),36.6 µM (inactive),44.7 µM (inactive),34 µM (inactive),21.8 µM (inactive),43.2 µM (inactive),44.5 µM (inactive)
c1ccc2c(c1)nnn2CNc1ccc(N2CCCCC2)cc1,> 100 µM (inactive),> 100 µM (inactive),,> 100 µM (inactive),> 100 µM (inactive),> 100 µM (inactive),> 100 µM (inactive),> 100 µM (inactive),> 100 µM (inactive)
COC(=O)c1cc2c3c(ccc2[nH]1)N(C(=O)c1cc2c4c(ccc2[nH]1)N(C(=O)c1cc2c5c(ccc2[nH]1)N(C(N)=O)CC5)CC4)CC3,> 100 µM (inactive),> 21.1 µM (inactive),,2.07 µM (inactive),,4.06 µM (inactive),> 100 µM (inactive),> 63.8 µM (inactive),3.7 µM (inactive)
COc1cc(C2(C)SCCCS2)cc(OC)c1OC,,> 100 µM (inactive),> 100 µM (inactive),> 100 µM (inactive),,> 100 µM (inactive),> 100 µM (inactive),> 100 µM (inactive),> 100 µM (inactive)
O=C1C2c3[nH]c4ccccc4c3[C@@H]3CCCCC3C2C(=O)N1c1ccccc1 (stereo partly drawn),19.3 µM (inactive),26.2 µM (inactive),19.1 µM (inactive),17.6 µM (inactive),,17.3 µM (inactive),,,22.1 µM (inactive)
CNC(C)Cc1ccccc1O (stereo not drawn),> 100 µM (inactive),> 100 µM (inactive),,> 100 µM (inactive),,> 100 µM (inactive),> 100 µM (inactive),> 100 µM (inactive),> 100 µM (inactive)
O=C(/C=C/c1ccc(OCCSCCCCCCCCCCSCCOc2ccc(/C=C/C(=O)c3ccc(Cl)cc3)cc2)cc1)c1ccc(Cl)cc1,37.2 µM (inactive),> 100 µM (inactive),> 100 µM (inactive),> 100 µM (inactive),,> 100 µM (inactive),> 100 µM (inactive),> 100 µM (inactive),> 100 µM (inactive)
ClC(/N=N/c1ccccc1)=N/Nc1ccccc1,> 100 µM (inactive),,> 100 µM (inactive),28.5 µM (inactive),40.4 µM (inactive),26.6 µM (inactive),20.8 µM (inactive),51.1 µM (inactive),
Cc1cccc(N2C(=O)/C(=C/c3ccc(N(CCC#N)CCC#N)cc3C)N=C2c2cc([N+](=O)[O-])ccc2Cl)c1,,> 100 µM (inactive),> 100 µM (inactive),> 100 µM (inactive),,> 100 µM (inactive),> 100 µM (inactive),,88.9 µM (inactive)
CC1(C)O/C(=C\c2ccccc2)C(=O)/C(=C/c2ccccc2)O1,38.5 µM (inactive),42.3 µM (inactive),28.6 µM (inactive),20.4 µM (inactive),18.5 µM (inactive),42.6 µM (inactive),> 100 µM (inactive),,17.3 µM (inactive)
CN(C)NC(=O)/C(=C/c1ccc(Cl)cc1)NC(=O)c1ccccc1,,44.9 µM (inactive),> 100 µM (inactive),> 100 µM (inactive),> 100 µM (inactive),29.4 µM (inactive),> 100 µM (inactive),> 100 µM (inactive),
NCCCC(N/C=C1/N=C(c2ccccc2)OC1=O)C(=O)O (stereo not drawn),> 100 µM (inactive),65.8 µM (inactive),> 100 µM (inactive),96.8 µM (inactive),> 100 µM (inactive),> 100 µM (inactive),,> 100 µM (inactive),> 100 µM (inactive)
CN1CC[C@]2(C)c3cc(O)ccc3CC3CCCC1C32C (stereo partly drawn),> 100 µM (inactive),> 100 µM (inactive),> 100 µM (inactive),> 100 µM (inactive),> 100 µM (inactive),,26.6 µM (inactive),> 100 µM (inactive),> 100 µM (inactive)
COC(=O)C1=Cc2cc(OC)c(OC)cc2[C@H](c2ccc(OC)c(OC)c2)C1C(=O)OC (stereo partly drawn),> 100 µM (inactive),,> 100 µM (inactive),> 100 µM (inactive),> 100 µM (inactive),> 100 µM (inactive),,> 100 µM (inactive),> 100 µM (inactive)
Cc1ccc2[nH]c3c4c5ccccc5nc-4c[nH]c3c2c1,17 µM (inactive),15.5 µM (inactive),,19.2 µM (inactive),21.4 µM (inactive),,14.9 µM (inactive),15.1 µM (inactive),16.1 µM (inactive)
CCOC(=O)C(=O)Nc1ccc([N+](=O)[O-])cc1C#N,,> 100 µM (inactive),> 100 µM (inactive),> 100 µM (inactive),> 100 µM (inactive),,> 100 µM (inactive),,> 100 µM (inactive)
Nc1nc(SCc2ccccc2[N+](=O)[O-])c2[nH]cnc2n1,> 100 µM (inactive),> 100 µM (inactive),> 100 µM (inactive),> 100 µM (inactive),,> 100 µM (inactive),,> 100 µM (inactive),
CCCOc1ccc(/C=C/c2cc(OC)c(OC)c(OC)c2)cc1,1.29 µM (inactive),0.386 µM (active),0.682 µM (active),0.558 µM (active),0.56 µM (active),0.147 µM (active),> 100 µM (inactive),0.2 µM (active),0.347 µM (active)
